According to PubChem BioAssay (NCI):
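Each compound was tested at five concentrations against cells in 96-well plates for 48 hours. GI50 is the concentration that inhibits growth by half. TGI: total growth inhibition.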

Assays:
Experiment in all cases: inhibition of tumour cell growth, NCI panel, 48 h
SF-295 CNS = test system: SF-295 CNS
MDA-MB-231 breast = test system: MDA-MB-231 breast
BT-549 breast = test system: BT-549 breast
UO-31 renal = test system: UO-31 renal
OVCAR-8 ovarian = test system: OVCAR-8 ovarian
SW-620 colon = test system: SW-620 colon
SK-MEL-2 melanoma = test system: SK-MEL-2 melanoma
SK-MEL-5 melanoma = test system: SK-MEL-5 melanoma
SN12C renal = test system: SN12C renal
A498 renal = test system: A498 renal
NCI-H226 lung = test system: NCI-H226 lung
SF-268 CNS = test system: SF-268 CNS
786-0 renal = test system: 786-0 renal
MDA-MB-435 = test system: MDA-MB-435
MOLT-4 leukemia = test system: MOLT-4 leukemia
SK-MEL-28 melanoma = test system: SK-MEL-28 melanoma
OVCAR-5 ovarian = test system: OVCAR-5 ovarian
RXF 393 renal = test system: RXF 393 renal
K-562 leukemia = test system: K-562 leukemia
HOP-62 NSCLC = test system: HOP-62 NSCLC
OVCAR-3 ovarian = test system: OVCAR-3 ovarian
KM12 colon = test system: KM12 colon
ACHN renal = test system: ACHN renal
DU-145 prostate = test system: DU-145 prostate
HCT-116 colon = test system: HCT-116 colon
HL-60(TB) leukemia = test system: HL-60(TB) leukemia
OVCAR-4 ovarian = test system: OVCAR-4 ovarian
UACC-62 melanoma = test system: UACC-62 melanoma
A549 NSCLC = test system: A549 NSCLC
HT29 colon = test system: HT29 colon
SF-539 CNS = test system: SF-539 CNS
IGROV1 ovarian = test system: IGROV1 ovarian
NCI-H23 lung = test system: NCI-H23 lung
HCC-2998 colon = test system: HCC-2998 colon
COLO 205 colon = test system: COLO 205 colon
LOX IMVI melanoma = test system: LOX IMVI melanoma
CAKI-1 renal = test system: CAKI-1 renal
SNB-75 CNS = test system: SNB-75 CNS
MDA-MB-468 breast = test system: MDA-MB-468 breast
SR leukemia = test system: SR leukemia
MCF7 breast = test system: MCF7 breast
U251 CNS = test system: U251 CNS
M14 melanoma = test system: M14 melanoma
EKVX NSCLC = test system: EKVX NSCLC
HCT-15 colon = test system: HCT-15 colon
TK-10 renal = test system: TK-10 renal
SNB-19 CNS = test system: SNB-19 CNS
SK-OV-3 ovarian = test system: SK-OV-3 ovarian
MALME-3M melanoma = test system: MALME-3M melanoma
HS 578T breast = test system: HS 578T breast
RPMI-8226 leukemia = test system: RPMI-8226 leukemia
T-47D breast = test system: T-47D breast
CCRF-CEM leukemia = test system: CCRF-CEM leukemia
NCI-H460 lung = test system: NCI-H460 lung
PC-3 prostate = test system: PC-3 prostate

Structure (SMILES): CC1=C(C(=O)OCc2ccccc2)C(c2cccc3ccccc23)n2c(nc3ccccc32)N1 (stereo not given)
- GI50 (SF-295 CNS): 3.04 µM
- TGI (SF-295 CNS): > 100 µM
- GI50 (MDA-MB-231 breast): > 100 µM
- TGI (MDA-MB-231 breast): > 100 µM
- GI50 (BT-549 breast): 4.67 µM
- TGI (BT-549 breast): > 100 µM
- GI50 (UO-31 renal): 4.64 µM
- TGI (UO-31 renal): > 100 µM
- GI50 (OVCAR-8 ovarian): 4.94 µM
- TGI (OVCAR-8 ovarian): > 100 µM
- GI50 (SW-620 colon): 3.62 µM
- TGI (SW-620 colon): > 100 µM
- GI50 (SK-MEL-2 melanoma): 2.5 µM
- TGI (SK-MEL-2 melanoma): 7.66 µM
- GI50 (SK-MEL-5 melanoma): 3.37 µM
- TGI (SK-MEL-5 melanoma): 21.7 µM
- GI50 (SN12C renal): 5.08 µM
- TGI (SN12C renal): > 100 µM
- GI50 (A498 renal): > 100 µM
- TGI (A498 renal): > 100 µM
- GI50 (NCI-H226 lung): 3.26 µM
- TGI (NCI-H226 lung): > 100 µM
- GI50 (SF-268 CNS): 5.44 µM
- TGI (SF-268 CNS): > 100 µM
- GI50 (786-0 renal): 4.68 µM
- TGI (786-0 renal): > 100 µM
- GI50 (MDA-MB-435): 1.86 µM
- TGI (MDA-MB-435): 4.68 µM
- GI50 (MOLT-4 leukemia): 2.71 µM
- TGI (MOLT-4 leukemia): > 100 µM
- GI50 (SK-MEL-28 melanoma): > 100 µM
- TGI (SK-MEL-28 melanoma): > 100 µM
- GI50 (OVCAR-5 ovarian): > 100 µM
- TGI (OVCAR-5 ovarian): > 100 µM
- GI50 (RXF 393 renal): 1.51 µM
- TGI (RXF 393 renal): 6.9 µM
- GI50 (K-562 leukemia): 1.66 µM
- TGI (K-562 leukemia): > 100 µM
- GI50 (HOP-62 NSCLC): 4.15 µM
- TGI (HOP-62 NSCLC): > 100 µM
- GI50 (OVCAR-3 ovarian): 2.65 µM
- TGI (OVCAR-3 ovarian): 7.58 µM
- GI50 (KM12 colon): 3.21 µM
- TGI (KM12 colon): > 100 µM
- GI50 (ACHN renal): 4.66 µM
- TGI (ACHN renal): > 100 µM
- GI50 (DU-145 prostate): 4.21 µM
- TGI (DU-145 prostate): > 100 µM
- GI50 (HCT-116 colon): 3.19 µM
- TGI (HCT-116 colon): > 100 µM
- GI50 (HL-60(TB) leukemia): 2.14 µM
- TGI (HL-60(TB) leukemia): > 100 µM
- GI50 (OVCAR-4 ovarian): 6.36 µM
- TGI (OVCAR-4 ovarian): > 100 µM
- GI50 (UACC-62 melanoma): 3.99 µM
- TGI (UACC-62 melanoma): > 100 µM
- GI50 (A549 NSCLC): 5.21 µM
- TGI (A549 NSCLC): > 100 µM
- GI50 (HT29 colon): 2.53 µM
- TGI (HT29 colon): 8.29 µM
- GI50 (SF-539 CNS): 3.22 µM
- TGI (SF-539 CNS): > 100 µM
- GI50 (IGROV1 ovarian): 5.49 µM
- TGI (IGROV1 ovarian): > 100 µM
- GI50 (NCI-H23 lung): 32.6 µM
- TGI (NCI-H23 lung): > 100 µM
- GI50 (HCC-2998 colon): 7.58 µM
- TGI (HCC-2998 colon): > 100 µM
- GI50 (COLO 205 colon): 3.22 µM
- TGI (COLO 205 colon): > 100 µM
- GI50 (LOX IMVI melanoma): 5.7 µM
- TGI (LOX IMVI melanoma): > 100 µM
- GI50 (CAKI-1 renal): 2.4 µM
- TGI (CAKI-1 renal): > 100 µM
- GI50 (SNB-75 CNS): 1.39 µM
- TGI (SNB-75 CNS): 4.91 µM
- GI50 (MDA-MB-468 breast): 1.93 µM
- TGI (MDA-MB-468 breast): 7.26 µM
- GI50 (SR leukemia): 2.4 µM
- TGI (SR leukemia): > 100 µM
- GI50 (MCF7 breast): 2.71 µM
- TGI (MCF7 breast): > 100 µM
- GI50 (U251 CNS): 3.49 µM
- TGI (U251 CNS): > 100 µM
- GI50 (M14 melanoma): 3.78 µM
- TGI (M14 melanoma): > 100 µM
- GI50 (EKVX NSCLC): 4.8 µM
- TGI (EKVX NSCLC): > 100 µM
- GI50 (HCT-15 colon): 3.61 µM
- TGI (HCT-15 colon): > 100 µM
- GI50 (TK-10 renal): > 100 µM
- TGI (TK-10 renal): > 100 µM
- GI50 (SNB-19 CNS): 5.8 µM
- TGI (SNB-19 CNS): > 100 µM
- GI50 (SK-OV-3 ovarian): 3.97 µM
- TGI (SK-OV-3 ovarian): > 100 µM
- GI50 (MALME-3M melanoma): 3.84 µM
- TGI (MALME-3M melanoma): > 100 µM
- GI50 (HS 578T breast): 2.69 µM
- TGI (HS 578T breast): 8.82 µM
- GI50 (RPMI-8226 leukemia): 3.46 µM
- TGI (RPMI-8226 leukemia): > 100 µM
- GI50 (T-47D breast): 4.22 µM
- TGI (T-47D breast): > 100 µM
- GI50 (CCRF-CEM leukemia): 2.69 µM
- TGI (CCRF-CEM leukemia): > 100 µM
- GI50 (NCI-H460 lung): 3.61 µM
- TGI (NCI-H460 lung): > 100 µM
- GI50 (PC-3 prostate): 3.33 µM
- TGI (PC-3 prostate): > 100 µM
